Test results published in patent US20230391727A1, “ANALOGUES OF PENTAMIDINE AND METHODS FOR TREATING INFECTIONS” (Auransa Inc., priority 2020, published 2023).
Converted amounts (≈) assume the structure as drawn. Like-named read-outs stand apart in the source and are kept apart here. Values belong to the compound of their own block, whether it stands above or below them.

What was measured:
NCI H69 cells = assay: CellTiter-Glo cell viability assay (cytotoxicity), 8 days; type: cell-based; conditions: Homo sapiens, 192 h, full growth media
Description: The experiment tested pentamidine, Compounds 1-6 in full growth media for 8 days. NCI H69 cells were initially treated with the test compounds on Day 0, and the cells were then replenished with fresh compound dilutions on Day 3. Pentamidine and Compound 1 were tested at 9 concentration points: 100 μM, 33.33 μM, 11.11 μM, 3.70 μM, 1.23 μM, […], 0.05 μM, and 0.02 μM (final DMSO concentration=0.5%). The raw data values from the CellTiter-Glo™ cell viability assay expressed in relative luminescence units were normalized to the vehicle for each individual plate, and any reduction in luminescence indicated a decrease in viability (%). The data was analyzed in GraphPad PRISM using a non-linear sigmoidal plot with variable slope (asymmetric four-point […]), and an IC50 value for each compound was generated based on the normalized dose-response curves and shown in Table 1.

A. baumannii ATCC 17978 = assay: Checkerboard assay with novobiocin (FIGS. 2, 3, 5, 6); type: cell-based, Acinetobacter baumannii
From the text: Novobiocin is an anti-staphylococcal drug, but with limited use. The oral form of novobiocin drug has since been withdrawn from the market due to lack of efficacy. This antibiotic is often used to treat Staphylococcus aureus infection, particularly methicillin resistant S. aureus “MRSA”.

K. pneumoniae ATCC 43816 = assay: Checkerboard assay with rifampicin (FIG. 4); type: cell-based, Klebsiella pneumoniae; conditions: K. pneumoniae ATCC 43816, FIG. 4
S. aureus ATCC 27660 = assay: MIC assay against gram positive S. aureus; type: cell-based; conditions: Staphylococcus aureus, ATCC27660
Description: (§1) Then the compound stocks were serially 2-fold diluted in a v-bottom 96-well plate to make 100-fold working solutions. One day before the test, −80° C. glycerol stock of S. aureus strains were streaked on cation-adjusted Mueller-Hinton agar (CAMHA) plates. On the day of test, fresh bacterial colonies were suspended into sterile saline to an OD600 nm of ˜0.1 (equivalent to 0.5 McFarland). The bacterial suspension was firstly 20-fold followed by 50-fold diluted in cation-adjusted Mueller-Hinton broth (CAMHB) plates to 1×10^6 CFU/PO. 198 ul of the inoculum was added into the round-bottom 96-well plates prefilled with 2 ul of 100-fold compound working solutions. After incubating at 35 +/−2° C. in ambient atmosphere for 18-24 h, MIC was recorded as the lowest concentration under which no visible bacterial growth was observed.

S. aureus ATCC 43300 = assay: MIC assay against gram positive S. aureus; type: cell-based; conditions: Staphylococcus aureus, ATCC43300
Description: as §1

[1] = test system: Staphylococcus aureus BAA-1556 (MRSA); assay: MIC assay against gram positive and antibiotic-resistant S. aureus; type: cell-based; conditions: Staphylococcus aureus BAA-1556, MRSA; read-out: MIC
Description: (§2) The MICs of vancomycin and linezolid were determined as quality controls and the MIC values of each strain met the acceptance criteria based on PDS historical reference data.
(§3) The direct colony suspension method was used to prepare inoculated broth. Isolated colonies were taken from an 18-24 h culture plate. Optical density measurements (OD620 nm) were used to estimate the bacterial density. The test article, compound 3, and reference control stock solutions were prepared in 100% DMSO as 50× stock solutions. The 50× stock solutions were diluted by 2-fold serial titrations with 100% DMSO for a total of 11 concentrations. A 4 μL aliquot of each dilution was added to 196 μL of cation-adjusted Mueller Hinton Broth II medium seeded with the organism in wells of a 96 well plate. The final vehicle concentration was two percent (2%) in all assay wells. The final bacterial count was 2 to 8×10^5 CFU/mL. The final compound 3 concentration range was 16 to 0.016 μg/mL. Each test substance dilution was evaluated in duplicate on one test occasion. Vehicle-control and reference controls were used as blank and positive controls, respectively. Plates were incubated at 35-37° C. for 18 h. The test plates were visually examined and each well was visually scored for growth or complete inhibition of growth. The MIC value was recorded.

[2] = test system: Staphylococcus aureus VRS-2 (VRSA); assay: as above; type: cell-based; conditions: Staphylococcus aureus VRS-2, VRSA; read-out: MIC
Description: as §2, §3

[3] = test system: Staphylococcus aureus ATCC 33591 (MRSA); assay: as above; type: cell-based; conditions: Staphylococcus aureus ATCC 33591, MRSA; read-out: MIC
Description: as §2, §3

[4] = test system: Staphylococcus aureus ATCC 19636; assay: as above; type: cell-based; conditions: ATCC19636; Staphylococcus aureus ATCC 19636; read-out: MIC
Description: as §2, §3

S. aureus VRS-2 = S. aureus VRS-2 peritonitis infection model; type: in vivo, female ICR mice; conditions: 50 mg/kg PO QD, 1 h post-infection, p<0.05
Description: The efficacy of compound 3 was evaluated in the S. aureus VRS-2 peritonitis infection model. The test article, compound 3 at 0.1, 0.3 and 1 mg/kg, was intraperitoneally (IP) administered twice at 2 and 16 h after infection; as well as once at 2 mg/kg at 2 h post-infection. The control reference agent, linezolid at 50 mg/kg, was orally (PO) administered once at 1 h post-infection. […] All animals in the vehicle group succumbed to infection between Day 1 to Day 2, resulting in 100% mortality, and a mean 15 h survival time. […] In the compound 3 at 1 mg/kg IP BID dose group, one out of eight animals survived till Day 7 of the study period, resulting in 13% survival rate, and a mean 33 h survival time.
For efficacy testing, the 0.4 mg/mL compound 3 solution was prepared by dissolving 1.21 mg of compound 3, corresponding to active ingredient of 1.02 mg with a correction factor of 1.19, in 2.55 mL of WFI. The 0.4 mg/mL compound 3 working solution was further diluted with WFI to generate three lower dosing solutions of 0.2, 0.06 and 0.02 mg/mL. All dosing solutions were soluble and colorless.
PDS supplied vancomycin and linezolid as reference controls for both MIC and in vivo studies. […] The 3.2 mg/mL linezolid 50× stock solution was prepared by dissolving 1.0 mg of linezolid in 0.313 mL of DMSO. Both solutions were colorless and soluble. For efficacy testing, one tablet of linezolid, at 600 mg, was dissolved in 12 mL of 1% Tween 80 in saline (0.9% NaCl) to generate a 50 mg/mL of stock solution. The 50 mg/mL linezolid stock solution was further diluted with 1% Tween 80 in 0.9% NaCl to generate the dosing solution of 5 mg/mL. Both solutions were insoluble with white color.
The S. aureus strain VRS-2 peritonitis infection model was performed with immunocompetent female ICR mice, weighing 22±2 g. All animals were specific pathogen free. The PDS standard protocol for preparing S. aureus cultures for mouse infection studies was followed. A 0.2 mL aliquot of a single-use glycerol stock (at −80° C.) was used to seed […] heart infusion (BHI) and then incubated at 35-37° C. with shaking (250 rpm) for 8 h. Bacterial cells in the 20 mL was pelleted by centrifugation (3,500×g) for 15 minutes, and then re-suspended in 10 mL cold phosphate buffer saline (PBS). The optical density, OD620 nm, was measured and used to guide dilution. The PBS suspensions were stored on ice for no more than 1 h prior to animal inoculation. The dilutions were performed by 1:1 dilution of BHI broth containing hog gastric mucin to obtain the target inoculum density, 1×10^8 CFU/mouse, per 0.5 mL with 5% mucin (final concentration). The actual colony count was determined by plating dilutions to nutrient agar (NA) plates followed by 20-24 h incubation at 35-37° C.
On Day 0, animals were infected with bacterial suspension with 5% mucin by intraperitoneal injection. The actual inoculum was 1.93×10^8 CFU/mouse with a target inoculum of 1×10^8 CFU/mouse in the peritonitis infection model. Test article, compound 3, was formulated in WFI and intraperitoneally (IP) administered with the dose schedule and concentrations indicated in the study design. Doses were administered once at 2 h post-infection or twice (BID) at 2 and 16 h post-infection. The animals were monitored for survival up to 7 days, twice daily (AM 9:00/PM 17:00). […]
Animals were monitored for mortality twice daily (AM 9:00/PM 17:00) for 7 days after infection. […]

[5] = test system: Blastomyces dermatitidis BD2; assay: Anti-fungal MIC assay; type: cell-based
Description: (§4) The first round of testing included Candida parapsilosis, Candida krusei, Paecilomyces variotii, Candida albicans, Aspergillus fumigatus, and Blastomyces dermatitidis. […] The second round of testing included Candida parapsilosis, Candida krusei, Candida albicans, Candida auris, Candida glabrata, Candida guilliermondii, and Cryptococcus neoformans.
(§5) Stock solutions of the investigational agent were prepared at concentrations 100-times the highest concentration to be tested (6400 μg/ml) using dimethyl sulfoxide. Aliquots of the stock solutions were dispensed into polystyrene vials and stored at −20° C.
(§6) The synthetic medium RPMI-1640 (with glutamine, without bicarbonate, and with phenol red) was used. The RPMI was buffered to a pH of 7.0+0.1 at 25° C. with 0.165M MOPS (3-[N-morpholino] propanesulfonic acid). Sterile U-shaped 96-well cell culture plates were used to perform the MIC assays. Dilutions of the DMSO stocks were prepared in RPMI to achieve 2× concentrations. After the dilutions of the working 2× investigational antifungal solutions were prepared, 0.1 ml of each concentration was transferred into a pre-specified column of the U-shaped 96-well cell culture plate using sterile pipettes.
(§7) Fungal isolates were grown on Sabouraud dextrose agar (yeasts) or potato flake agar (filamentous fungi) and cells were collected after an appropriate period of growth for each species being evaluated (e.g., 48-72 hours for yeasts and 7 days for filamentous fungi). The fungi were suspended in sterile distilled water, and the densities of the fungal suspension were read using a spectrophotometer and adjusted to an appropriate optical density specific for each fungal species. The fungal suspension of each isolate was then diluted in RPMI. A sufficient volume of the test inoculum was prepared to directly inoculate 0.1 ml into each test well of the 96-well cell culture plate. Final inoculum ranges were dependent on the fungal species to be tested (e.g., 0.4×103 to 5×10^3 cells/ml for yeasts and dimorphic fungi, and 0.4×104 to 5×10^4 cells/ml for filamentous fungi). Each well of the 96-well cell culture plate containing the investigational antifungal compounds (0.1 ml volume) was inoculated on the day of the assay with 0.1 ml of the fungal suspension. Growth control wells contained 0.1 ml of fungal suspension and 0.1 ml of the growth medium without antifungal agents. The media control well contained 0.2 ml of the growth medium.
(§8) The microdilution trays were incubated at 35° C. without agitation. […] One positive comparator/control was used for yeast (fluconazole) and one was used for filamentous fungi (voriconazole).

[6] = test system: Aspergillus fumigatus AF2; assay: Anti-fungal MIC assay; type: cell-based
Description: as §4, §5, §6, §7, §8

Candida krusei ATCC6258 = assay: Anti-fungal MIC assay; type: cell-based; conditions: Pichia kudriavzevii, first round (Table 5)
Description: as §4, §5, §6, §7, §8

[7] = test system: Aspergillus fumigatus AF293; assay: Anti-fungal MIC assay; type: cell-based; conditions: read-out: MIC, 50% growth inhibition
Description: as §4, §5, §6, §7, §8

[8] = test system: Aspergillus fumigatus AF3; assay: Anti-fungal MIC assay; type: cell-based
Description: as §4, §5, §6, §7, §8

[9] = test system: Blastomyces dermatitidis BD1; assay: Anti-fungal MIC assay; type: cell-based
Description: as §4, §5, §6, §7, §8

[10] = test system: Blastomyces dermatitidis BD3; assay: Anti-fungal MIC assay; type: cell-based
Description: as §4, §5, §6, §7, §8

[11] = read-out: MIC, 50% growth inhibition
[12] = read-out: MIC, 100% growth inhibition

MIC (A. baumannii ATCC 17978; Acinetobacter baumannii, ATCC17978, substance alone): 138 µM
Compound: N=C(N)c1cccc(CCCCCCCc2cccc(C3CCNC3)c2)c1 (centres unmarked) [Compound 2, 3-(7-(3-(pyrrolidin-3-yl)phenyl)heptyl)benzimidamide]
IC50 (NCI H69 cells): 1.5 µM
synergistic effect with novobiocin (A. baumannii ATCC 17978): clear synergistic effects
synergy with novobiocin as compared to pentamidine with novobiocin (A. baumannii ATCC 17978): superior synergy
synergy with rifampicin (K. pneumoniae ATCC 43816): increased level of synergy

Compound: CC(=O)NC[C@H]1CN(c2ccc(N3CCOCC3)c(F)c2)C(=O)O1 [Linezolid, reference compound]
MIC (S. aureus ATCC 27660): 4 µg/mL (≈ 11.9 µM)
MIC (S. aureus ATCC 43300): 4 µg/mL (≈ 11.9 µM)
MIC [1]: 2 µg/mL (≈ 5.93 µM)
MIC [2]: 4 µg/mL (≈ 11.9 µM)
MIC [3]: 2 µg/mL (≈ 5.93 µM)
MIC [4]: 4 µg/mL (≈ 11.9 µM)
survival rate (S. aureus VRS-2): 100%
mean survival time (S. aureus VRS-2; maximum set at 180 h): 180 h

MIC [5, 11]: ≤ 0.03 µg/mL
MIC [5, 12]: 0.125 µg/mL (≈ 0.358 µM)
MIC [6, 11]: > 16 µg/mL
MIC [6, 12]: > 16 µg/mL
MIC (Candida krusei ATCC6258; ATCC6258, Candida krusei ATCC6258, read-out: MIC, 50% growth inhibition): ≤ 0.03 µg/mL
MIC (Candida krusei ATCC6258; ATCC6258, read-out: MIC, 100% growth inhibition, Candida krusei ATCC6258): 0.125 µg/mL (≈ 0.358 µM)
MIC [7]: 0.25 µg/mL (≈ 0.716 µM)
MIC [8, 11]: 2 µg/mL (≈ 5.73 µM)
MIC [8, 12]: 4 µg/mL (≈ 11.5 µM)
MIC [9, 11]: ≤ 0.03 µg/mL
MIC [9, 12]: 0.06 µg/mL (≈ 0.172 µM)
MIC [10, 11]: ≤ 0.03 µg/mL
MIC [10, 12]: 0.125 µg/mL (≈ 0.358 µM)
Compound: C[C@@H](c1ncncc1F)[C@](O)(Cn1cncn1)c1ccc(F)cc1F [Voricolazole, voriconazole, reference compound]
